These results are taken from patent US4680311A, “Method for the treatment of systemic mycosis” (Taisho Pharmaceutical Co., Ltd., priority 1985, dated 1987).

In general, LD50 refers to the dose expected to kill half of the subjects tested.

Structures are written as SMILES. Read-outs that look alike come from different tables or passages of the source. A value given as a limit tells only on which side of the number the result lay.

One data set is described as follows: Acute toxicity in mice. The format is in vivo. The settings on record: mouse, in vivo, mice. The source says:
(§1) This finding leads the inventors to possible usefulness of this substance for the therapy of human cases of candidiasis and other systemic mycoses. This substance is an extremely specific antimycotic agent in that it quite differs in chemical structure from any existing antimycotic agents.

For the next data set, the system named is mice. The experiment in a line: Acute toxicity in mice. Type of data set: in vivo.
Source text: as §1

The test system of data set [1] is Candida albicans TIMM 0239. The data set can be described thus: Test Example 1: survival of mice with systemic Candida albicans infection. Type of data set: in vivo, Candida albicans TIMM 0239 in female SPF Crj:CD-1 (ICR) mice. The settings on record: for Survival rate: 50 mg/kg once daily, 5 days, observed 10 days postinfection, control 0/8. Here is the method: (§2) Female SPF mice Crj:CD-1 (ICR) strain, 4 weeks of age, weighing 18 g±1 g, were used as test animals. One loopful organisms of Candida albicans TIMM 0239 grown on Sabouraud's glucose agar slants were inoculated into Sabouraud's glucose broth containing 0.5% yeast extract. Then cultures were grown aerobically at 37° C. for 18 hours. The organisms were harvested from the cultures, washed twice with sterilized physiological saline, and finally suspended in saline. A total number of organisms was counted in a Burker-Turk hemocytometer. Thus prepared cell suspension was adjusted to contain 10^6 cells/ml, 0.2 ml of which was then injected into the tail vein in each mouse. Infected mice were allocated randomly to different groups. Each group consisted of eight mice.
(§3) (S)-2-amino-5-hydroxy-4-oxopentanoicacid was dissolved in sterilized physiological saline. The mice in the treated groups received the solution of this compound in a dose of 50 mg per kg mouse body weight once daily via an intravenous, subcutaneous, intraperitoneal or oral route for 5 consecutive days, starting on the day of infection. The first treatment was given immediately after a challenge of Candida albicans. The untreated control animals were intravenously given the same volume of saline in place of the test compound solution. The animals were observed daily for 10 days postinfection.

Data set [2] concerns Candida albicans. The format is in vivo, Candida albicans TIMM 0239 in female SPF Crj:CD-1 (ICR) mice. The conditions noted are these: for Survival rate / Average viable counts recovered (per mouse): twice daily, 14 days; for Survival rate: control 0/5; for Average viable counts recovered (per mouse): kidneys, control 4.87 × 10^7. Here is the method:
as §2, §3
The same experimental conditions as for Test Example 1 were employed, except that all groups of five animals were infected with 1.0×10^6 organisms and treated with either 25, 50 or 100 mg/kg of the test compound twice daily for 14 consecutive days. Duration of observation period was two weeks after infection.
The criteria to evaluate efficacy of the test compound include survival rate and viable counts of Candida albicans recovered from the kidneys of infected animals. Both kidneys were excised from all the animals at the end of the experimental period, homogenized and cultured on Sabouraud's glucose agar plates for assay of viable counts.

Data set [3] deals with Candida albicans. The data set can be described thus: protective and therapeutic efficacy in mice experimentally infected with Candida albicans. Type of data set: in vivo. Here is the method:
as §2
as §3, with “postinfection. […]” for “postinfection.”

Data set [4] relates to pathogenic human tubercle bacilli. The settings on record: A. Miyake, Chem. Pharm. Bull., 8, 1071 (1960); cited from earlier work.
The subject of another data set is fungi. The conditions noted are these: A. Miyake, Chem. Pharm. Bull., 8, 1071 (1960); cited from earlier work.

Turning to `N[C@@H](CC(=O)CO)C(=O)O` [(S)-2-amino-5-hydroxy-4-oxopentanoicacid], the LD50 in “Acute toxicity in mice” (ip) is at least 5000 mg/kg; in “Acute toxicity in mice” (po), at least 6000 mg/kg; in the data set “Acute toxicity in mice” (sc) it was at least 5000 mg/kg. Further, the “toxicity compared with existing antimycotic drugs” value in the data set with mice (acute toxicity, mice) is on record as “lower than that of any existing antimycotic drugs”. In the data set on mice (mouse, in vivo), the “tolerability in experimental animals” value was “very high tolerability”. Besides, the Survival rate in data set [1] (intraperitoneal) is 0/8; in data set [1] (intravenous), 4/8; in data set [1] (oral), 4/8; in data set [1] (subcutaneous), 0/8; in the data set on Candida albicans [2] (25 mg/kg oral), 1/5; in the data set with Candida albicans [2] (50 mg/kg oral) it was 2/5. For the same molecule, in the data set on Candida albicans [2] (100 mg/kg oral), the Survival rate was 5/5. The therapeutic efficacy result in data set [1] (especially by intravenous or oral route, murine systemic candidiasis) is “significant therapeutic efficacy”. The “Average viable counts recovered (per mouse)” value was 1.45 × 10^7 per mouse in the data set on Candida albicans [2] (25 mg/kg oral), 1.41 × 10^6 per mouse with Candida albicans [2] (50 mg/kg oral) and 2.41 × 10^5 per mouse with Candida albicans [2] (100 mg/kg oral). The “correlation between therapeutic efficacy and oral dose” value in the data set on Candida albicans [2] (oral, 25, 50 or 100 mg/kg) is “close correlation”. Further, the “protective and therapeutic efficacy” value with Candida albicans [3] is “significant protective and therapeutic efficacy”. For the same molecule, in data set [4], the “activity against pathogenic human tubercle bacilli” value is “highly active”. Also, the “in vitro antimycotic activity” value with fungi is recorded as “does hardly exert an in vitro antimycotic activity”.
